# Measurements: patent US10239843B2 (CANCER RESEARCH TECHNOLOGY LIMITED, priority 2014, dated 2019)
# Target: Human Full Length PARG (Homo sapiens (Human), UniProt Q86W56)
# Assay: PARG enzyme assay (TR-FRET)
# Type: biochemical
# Conditions: read-out: PARG Biochem IC50 Geomean
# Chain of Human Full Length PARG (Q86W56 whole entry): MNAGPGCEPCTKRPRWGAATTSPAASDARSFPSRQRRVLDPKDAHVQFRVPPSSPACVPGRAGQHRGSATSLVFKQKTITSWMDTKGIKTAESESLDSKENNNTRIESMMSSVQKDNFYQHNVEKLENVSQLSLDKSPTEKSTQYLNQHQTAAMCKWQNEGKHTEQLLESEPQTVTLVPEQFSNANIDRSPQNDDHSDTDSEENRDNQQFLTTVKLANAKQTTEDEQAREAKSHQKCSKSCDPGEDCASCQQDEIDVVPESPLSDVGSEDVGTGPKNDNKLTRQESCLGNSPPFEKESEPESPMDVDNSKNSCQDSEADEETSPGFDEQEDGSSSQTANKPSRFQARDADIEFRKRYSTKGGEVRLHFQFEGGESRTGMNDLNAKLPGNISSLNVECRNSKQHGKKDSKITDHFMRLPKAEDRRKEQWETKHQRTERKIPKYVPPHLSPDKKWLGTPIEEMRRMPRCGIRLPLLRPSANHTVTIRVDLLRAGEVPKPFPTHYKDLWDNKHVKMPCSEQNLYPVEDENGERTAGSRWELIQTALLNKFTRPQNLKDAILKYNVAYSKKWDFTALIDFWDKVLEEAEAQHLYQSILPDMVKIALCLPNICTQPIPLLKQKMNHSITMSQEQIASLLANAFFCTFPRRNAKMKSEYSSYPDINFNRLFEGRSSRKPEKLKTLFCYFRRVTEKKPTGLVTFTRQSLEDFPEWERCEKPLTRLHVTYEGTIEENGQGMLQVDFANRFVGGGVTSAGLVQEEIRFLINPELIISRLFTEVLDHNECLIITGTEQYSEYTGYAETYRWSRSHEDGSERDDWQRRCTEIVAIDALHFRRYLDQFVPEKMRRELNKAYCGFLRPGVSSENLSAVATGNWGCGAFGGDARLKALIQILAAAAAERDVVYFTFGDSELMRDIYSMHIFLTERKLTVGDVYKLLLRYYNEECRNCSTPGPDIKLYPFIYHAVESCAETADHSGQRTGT
row,Compound,IC50
1,Cn1c(=O)n(CC(=O)N2CCOCC2)c(=O)c2cc(S(=O)(=O)NC3(C)CC3)ccc21 [Example 182],4410 nM
2,Cc1ncoc1Cn1c(=O)c2cc(S(=O)(=O)NC3(C)CC3)ccc2n(C)c1=O [Example 188],1840 nM
3,Cc1nc(C)c(Cn2c(=O)c3cc(S(=O)(=O)NC4(C)CC4)ccc3n(C)c2=O)o1 [Example 189],1330 nM
4,Cc1noc(Cn2c(=O)c3cc(S(=O)(=O)NC4(C)CC4)ccc3n(C)c2=O)n1 [Example 190],3180 nM
5,Cc1nnsc1Cn1c(=O)c2cc(S(=O)(=O)NC3(C)CC3)ccc2n(C)c1=O [Example 191],877 nM
6,Cc1cc(Cn2c(=O)c3cc(S(=O)(=O)NC4(C)CC4)ccc3n(C)c2=O)n[nH]1 [Example 195],3220 nM
7,Cc1nc(C)c(Cn2c(=O)n(C)c(=O)c3cc(S(=O)(=O)NC(C)(C)C)ccc32)s1 [Example 202],1390 nM
8,Cn1c(=O)n(Cc2cnn(CC(N)=O)c2)c(=O)c2cc(S(=O)(=O)NC3(C)CC3)ccc21 [Example 203],635 nM
9,Cc1cc(Cn2c(=O)c3cc(S(=O)(=O)NC4(C)CC4)cnc3n(C)c2=O)on1 [Example 205],2600 nM
10,"Cc1cc(Cn2cc(Cl)c3ccc(S(=O)(=O)NC4(C)CC4)cc3c2=O)on1 [Example 209, 4-Chloro-N-(1-methylcyclopropyl)-2-[(3-methylisoxazol-5-yl)methyl]-1-oxo-isoquinoline-7-sulfonamide]",1640 nM
11,Cc1cc(Cn2cnc3ccc(S(=O)(=O)NC4(C)CC4)cc3c2=O)on1 [Example 210],1230 nM
12,"Cn1c(=O)[nH]c2cc(F)c(S(=O)(=O)NC3(C)CC3)cc2c1=O [Example 211, 7-Fluoro-3-methyl-N-(1-methylcyclopropyl)-2,4-dioxo-1H-quinazoline-6-sulfonamide]",1560 nM
13,COc1ccc(Cn2cc(Cn3c(=O)c4cc(S(=O)(=O)NC5(C)CC5)ccc4n(C)c3=O)cn2)cc1 [Example 212],1370 nM
14,Cn1c(=O)n(Cc2cnn(Cc3ccccc3)c2)c(=O)c2cc(S(=O)(=O)NC3(C)CC3)ccc21 [Example 215],592 nM
15,C#CCn1cc(Cn2c(=O)c3cc(S(=O)(=O)NC4(C)CC4)ccc3n(C)c2=O)cn1 [Example 216],560 nM
16,Cn1c(=O)n(Cc2cnn(CC3CC3)c2)c(=O)c2cc(S(=O)(=O)NC3(C)CC3)ccc21 [Example 218],681 nM
17,CN(C)CCn1cc(Cn2c(=O)c3cc(S(=O)(=O)NC4(C)CC4)ccc3n(C)c2=O)cn1 [Example 219],2480 nM
18,"Cc1cc(Cn2c(=O)[nH]c3ccc(S(=O)(=O)NC4(C)CC4)cc3c2=O)on1 [Example 221, N-(1-methylcyclopropyl)-3-[(3-isoxazol-5-yl)methyl]-2,4-dioxo-1H-quinazoline-6-sulfonamide]",649 nM
19,"CC1(NS(=O)(=O)c2ccc3[nH]c(=O)n(CC(N)=O)c(=O)c3c2)CC1 [Example 223, 2-[6-[(1-Methylcyclopropyl)sulfamoyl]-2,4-dioxo-1H-quinazolin-3-yl]acetamide]",7470 nM
20,Cn1c(=O)c2cc(S(=O)(=O)NC3(C)CC3)c(F)cc2n(C)c1=O [Example 224],1440 nM

row,Compound,IC50
1,Cn1c(=O)c2cc(S(=O)(=O)NC3(C)CC3)cc(F)c2n(C)c1=O [Example 225],7490 nM
2,Cn1c(=O)n(Cc2ccno2)c(=O)c2cc(S(=O)(=O)NC3(C)CC3)ccc21 [Example 226],1180 nM
3,"Cn1nc(Cl)c2ccc(S(=O)(=O)NC3(C)CC3)cc2c1=O [Example 227, 1-Chloro-3-methyl-N-(1-methylcyclopropyl)-4-oxo-phthalazine-6-sulfonamide]",5140 nM
4,"CNc1nn(C)c(=O)c2cc(S(=O)(=O)NC3(C)CC3)ccc12 [Example 234, 3-Methyl-1-(methylamino)-N-(1-methylcyclopropyl)-4-oxo-phthalazine-6-sulfonamide]",1980 nM
5,CN1CCCC(Cn2c(=O)n(Cc3cnn(C)c3)c(=O)c3cc(S(=O)(=O)NC4(C)CC4)ccc32)C1 (stereo not shown) [Example 236],6740 nM
6,"CC1(NS(=O)(=O)c2ccc3[nH]c(=O)n(C4CC4)c(=O)c3c2)CC1 [Example 240, 3-Cyclopropyl-N-(1-methylcyclopropyl)-2,4-dioxo-1H-quinazoline-6-sulfonamide]",4120 nM
7,Cc1cc(Cn2c(=O)n(C3CC3)c(=O)c3cc(S(=O)(=O)NC4(C)CC4)ccc32)n(C)n1 [Example 241],642 nM
8,"Cc1cc(Cn2ccc3ccc(S(=O)(=O)NC4(C)CC4)cc3c2=O)on1 [Example 242, N-(1-Methylcyclopropyl)-2-[(3-methylisoxazol-5-yl)methyl]-1-oxo-isoquinoline-7-sulfonamide]",7350 nM
9,"CNc1nn(Cc2cc(C)no2)c(=O)c2cc(S(=O)(=O)NC3(C)CC3)ccc12 [Example 244, 1-(methylamino)-N-(1-methylcyclopropyl)-3-[(3-methylisoxazol-5-yl)methyl]-4-oxo-phthalazine-6-sulfonamide]",666 nM
10,Cc1cc(Cn2c(=O)c3cc(S(=O)(=O)NC4(C)CC4)ccc3n(CCN3CCCC3)c2=O)on1 [Example 248],521 nM
11,"Cn1cc(-c2ccc(F)cc2)c2ccc(S(=O)(=O)NC3(C)CC3)cc2c1=O [Example 255, 4-(4-Fluorophenyl)-2-methyl-N-(1-methylcyclopropyl)-1-oxo-isoquinoline-7-sulfonamide]",8520 nM
12,"Cc1cc(Cn2cc(C)c3ccc(S(=O)(=O)NC4(C)CC4)cc3c2=O)on1 [Example 256, 4-Methyl-N-(1-methylcyclopropyl)-2-[(3-methylisoxazol-5-yl)methyl]-1-oxo-isoquinoline-7-sulfonamide]",1280 nM
13,Cc1cc(Cn2c(=O)c3cc(S(=O)(=O)NC4CC4)ccc3n(C)c2=O)on1 [Example 260],3790 nM
14,CCC1(NS(=O)(=O)c2ccc3c(c2)c(=O)n(Cc2cc(C)no2)c(=O)n3C)CC1 [Example 261],3040 nM
15,"Cc1cc(Cn2nc(Cl)c3ccc(S(=O)(=O)NC4(C)CC4)cc3c2=O)on1 [Example 262, 1-Chloro-N-(1-methylcyclopropyl)-3-[(3-methylisoxazol-5-yl)methyl]-4-oxo-phthalazine-6-sulfonamide]",1110 nM
16,Cc1cc(Cn2c(=O)c3cc(S(=O)(=O)NC4(C)CC4)ccc3n(CCN3CCCCC3)c2=O)on1 [Example 278],526 nM
17,Cc1cc(Cn2nc(N(C)C)c3ccc(S(=O)(=O)NC4(C)CC4)cc3c2=O)on1 [Example 282],638 nM
18,"Cc1cc(Cn2nc(C#CCN(C)C)c3ccc(S(=O)(=O)NC4(C)CC4)cc3c2=O)on1 [Example 283, 1-[3-(dimethylamino)prop-1-ynyl]-N-(1-methylcyclopropyl)-3-[(3-methylisoxazol-5-yl)methyl]-4-oxo-phthalazine-6-sulfonamide]",512 nM
19,"Cc1cc(Cn2nc(C)c3ccc(S(=O)(=O)NC4(C)CC4)cc3c2=O)on1 [Example 284, 1-methyl-N-(1-methylcyclopropyl)-3-[(3-methylisoxazol-5-yl)methyl]-4-oxo-phthalazine-6-sulfonamide]",1180 nM
20,"Cc1cc(Cn2cc(C#CCN(C)C)c3ccc(S(=O)(=O)NC4(C)CC4)cc3c2=O)on1 [Example 286, 4-[3-(Dimethylamino)prop-1-ynyl]-N-(1-methylcyclopropyl)-2-[(3-methylisoxazol-5-yl)methyl]-1-oxo-isoquinoline-7-sulfonamide]",842 nM
